Entries after “also recorded” stand apart in the source; their conditions may differ.
Experiments:
[1] = system: PCSK9 secretion in HepG2 cells; experiment: Secreted PCSK9 ELISA, HepG2 media; format: cell-based, human; conditions: HepG2, 24 hours; Mdivi-1 50 μM, pitavastatin 1 μM, T0901317 1 μM
Protocol: Pitavastatin and T0901317 were synthesized and provided by Kowa Company, Ltd. (Tokyo, Japan), and treated at a dose of 1 μM in all experiments. […] Mdivi-1 in DMSO vehicle was added at a concentration of 50 μM in all experiments. Mdivi-1 in DMSO vehicle was added to cell culture media in a 50 mL tube, vortexed hard for several minutes and then incubated at 37° C. prior to adding to cells to ensure the compound was fully solubilized.

[2] = system: PCSK9 secretion in primary human hepatocytes; experiment: Secreted PCSK9 ELISA, primary human hepatocytes; format: cell-based; conditions: Mdivi-1 50 μM, 24 hours
Protocol: Pitavastatin and T0901317 were synthesized and provided by Kowa Company, Ltd. (Tokyo, Japan), and treated at a dose of 1 μM in all experiments. DMSO (vehicle; final concentration 0.01%) and Mdivi-1 (>99.85% purity) were purchased from Sigma (St. Louis, Mo.). Mdivi-1 in DMSO vehicle was added at a concentration of 50 μM in all experiments. Mdivi-1 in DMSO vehicle was added to cell culture media in a 50 mL tube, vortexed hard for several minutes and then incubated at 37° C. prior to adding to cells to ensure the compound was fully solubilized.
HepG2 cells were obtained from ATCC (Manassas, Va.), and cultured in EMEM with L-glutamine (ATCC) medium, 1% pen/strep, with and without 10% FBS (Thermo Fisher Scientific, Waltham, Mass.) in 12-well plates (Corning, Durham, N.C.). HepG2 cells were plated at a density of 60-70% prior to treatment to avoid clumping. […] Cell viability was assessed by Trypan Blue exclusion using live/dead cell counting on a Countess™ II LT automated cell counter (Thermo Fisher Scientific).
Mouse serum PCSK9 was measured using the mouse proprotein convertase 9/PCSK9 quantikine ELISA kit (MPC900, R&D Systems, Minneapolis, Minn.), and human liver cell secreted PCSK9 using the human proprotein convertase 9/PCSK9 DuoSet ELISA (DY3888, R&D Systems), both according to manufacturers' protocols.

PCSK9 mRNA = experiment: Real time PCR, HepG2 PCSK9 mRNA; format: cell-based, human; conditions: HepG2, Mdivi-1 50 μM, 24 hours
Text: (§1) Human cells and mouse liver was homogenized with TriZolTM (Life Technologies, Grand Island, N.Y.) to isolate RNA. QuantiTectTM Reverse Transcription Kit (Qiagen, Hilden, Germany) was used for reverse transcription on total RNA. cDNA was generated using the Quanta gScriptTM cDNA Synthesis Kit (Bioscience Inc., Gaithersburg, Md.). mRNA levels were quantified on a 7900HT real-time PCR system (Thermo Fisher Scientific) using TaqManTM real-time PCR with the following probes: Hs02758991_g1 (human GAPDH); Mm99999915_g1 (mouse Gapdh); Hs00236329 m1 (human BCL2L1); Hs00247147_m1 (human DRP1); Hs00545399_m1 (human PCSK9); Mm01263610_m1 (mouse Pcsk9); Hs00168352_m1 (human HMGCR); […]); Hs00181192_m1 (human LDLR); Mm00440169_m1 (mouse Ldlr); Hs01088691_m1 (human SREBP1); Mm00550338_m1 (mouse Srebp1); Hs00231674_m1 (human SREBP1a); custom primer (human SREBP1c); Hs01081784_m1 (human SREBP2); Mm01306292_m1 (mouse Srebp2); Hs01005622_m1 (human FASN); […]); Hs00167041_m1 (human HNF1A); Mm00493434_m1 (mouse Hnf1a); Hs00171168 (human APOE); Hs01059118_m1 (human ABCA1); Hs01103582_s1 (human JUN). Mouse SREBP-1c was analyzed by SYBERTM green PCR with the following primers: [NT] All expression levels were normalized to GAPDH using the ΔΔCT method.

HepG2 cells = experiment: HepG2 viability by Trypan Blue exclusion; format: cell-based, human; conditions: HepG2, Mdivi-1, 24 hours
Protocol: HepG2 cells were obtained from ATCC (Manassas, Va.), and cultured in EMEM with L-glutamine (ATCC) medium, 1% pen/strep, with and without 10% FBS (Thermo Fisher Scientific, Waltham, Mass.) in 12-well plates (Corning, Durham, N.C.). HepG2 cells were plated at a density of 60-70% prior to treatment to avoid clumping. Freshly isolated primary human hepatocytes plated at 100% confluency on 12-well plates were obtained from Thermo Fisher Scientific. Three donors were used to obtain experimental data: person, person, and a person. Primary hepatocytes were treated immediately upon arrival and cultured in William's E medium with hepatic maintenance supplement pack (Thermo Fisher Scientific), 1% pen/strep (VWR; Radnor, Pa.), and 10% FBS (Thermo Fisher Scientific). Cell viability was assessed by Trypan Blue exclusion using live/dead cell counting on a Countess™ II LT automated cell counter (Thermo Fisher Scientific).

cellular PCSK9 protein = experiment: Western blot, primary human hepatocyte cellular PCSK9 protein; format: cell-based; conditions: primary human hepatocytes, Mdivi-1 50 μM, 24 hours
SREBP-1c mRNA = experiment: Real time PCR, HepG2 SREBP-1c mRNA; format: cell-based, human; conditions: HepG2, Mdivi-1 50 μM, 24 hours
Text: as §1

[3] = system: HNF1A, SREBP-2, and SREBP-1a; experiment: Real time PCR, PCSK9 regulating transcription factors; format: cell-based; conditions: HepG2 and primary human hepatocytes, Mdivi-1 50 μM, 24 hours
Text: as §1

HMGCR = experiment: Western blot, HepG2 HMGCR protein; format: cell-based, human; conditions: HepG2, Mdivi-1 50 μM, 24 hours
hepatocyte cytoskeleton = experiment: Cytoskeleton gene panel and actin/microtubule confocal immunofluorescence; format: cell-based; conditions: HepG2 and primary human hepatocytes, Mdivi-1 50 μM, 24 hours
Protocol: Filamentous actin was stained using CytoPainter Phallodin iFluor 555 Reagent (2 μl phalloidin in 2000 μl PBS with 1% BSA; Abcam), with a 60 minute incubation at room temperature. Slides were incubated with anti-alpha tubulin (1:200, Abcam, ab15246), PDI (1:100; 3501, Cell Signaling Technology), and anti-mitochondria (ab92824, Abcam) for 2 hours at room temperature or overnight at 4° C., followed by incubation with Alexa Fluor 488-labelled secondary antibody (1:200, Thermo Fisher Scientific). Nuclear staining was performed with DAPI (Thermo Fisher Scientific). Prior to visualization 200 μL PBS was added to each well. Liver tissue and cells were examined using a confocal microscope Al (Nikon Instruments Inc., Melville, N.Y.), and all images were processed with Elements 3.20 software (Nikon Instruments Inc.). Human cells and mouse liver was homogenized with TriZolTM (Life Technologies, Grand Island, N.Y.) to isolate RNA. […]

Compound: COc1cc(-n2c(S)nc3ccccc3c2=O)c(Cl)cc1Cl [Mdivi-1, 3-(2,4-Dichloro-5-methoxyphenyl)-2,3-dihydro-2-thioxo-4(1H)-quinazolinone]
- PCSK9 secretion change by ELISA [1]: −76.1%
- PCSK9 secretion by ELISA [2]: reduced
- Cellular PCSK9 mRNA (PCSK9 mRNA): reduced; also recorded: strongly reduced
- cell viability (HepG2 cells): without altering
- cellular PCSK9 protein (cellular PCSK9 protein): without altering
- SREBP-1c mRNA (SREBP-1c mRNA): strongly reduced
- Expression of HNF1A, SREBP-2, and SREBP-1a [3]: not changed
- HMGCR abundance increase (HMGCR): not
- hepatocyte cytoskeleton (hepatocyte cytoskeleton): did not alter
